# Measurements reported in patent publication US10080728B2, “Hemostatic agent” (priority 2015, dated 2018).
# Assays:
# [1] = tested on: capillary-parenchymal bleeding from liver wounds; assay: Hemostatic activity of solution or spray on superficial liver wound (Example 1.1); type: in vivo, rabbits
# Procedure: (§1) The influence of the claimed substance on the hemostatic function was examined in rabbits of both sexes weighing 2000-4000 g. The experiments were carried out under general anesthesia. The animals underwent a laparotomy with a section made along the white line of the abdomen. The intestine was exteriorized into the wound and limited by wipes moistened with 0.9% sodium chloride solution (temperature […]), as well as the front surface of the liver. A superficial wound of the liver by the area of 1.5 cm^2 and the depth of 0.1 cm was inflicted by means of a razor.
# Arrest of the capillary-parenchymal bleeding was carried out by uniform application of a 1% solution or a spray of the claimed substance on the entire area of the wound surface. At that, iron subsulfat was used for comparison of the bleeding arrest time. Hemostatic activity was evaluated by the change of the bleeding intensity.
# pain with soft corn = assay: Anesthetic activity, pain with soft corn, VAS (second Example 1.8); type: in vivo; details: soft corns
# Procedure: Evaluation of the claimed substance's anesthetic activity was studied when dispersing a spray containing 0.01-10% of the preparation, or when applied at a concentration of 0.01% to 10% onto a bandaging material or a plaster for application onto the wound surface. An iron subsulfate solution was used as a reference. For efficiency evaluation the change in the pain sensation intensity on the visual analog scale (VAS) from 0 to 10 points in 1 minute after application of the product and after 2 days in everyday use was used.
# [2] = tested on: itch at genital candidiasis; assay: Itch reduction at genital candidiasis, ISS (Example 2.3); type: in vivo; details: rounded to the higher value
# Procedure: Evaluation of the claimed substance's anesthetic activity to reduce itch at genital candidiasis was studied when applied onto mucosae in the form of a 0.01% to 10% solution or by administering vaginal suppositories containing the claimed substance. To evaluate the efficiency the change in the itch sensation intensity on the Itch Severity Score (ISS) in 1 minute after application/administration of the product and after 5 days in case of everyday administration was used.
# [3] = tested on: chest pain and bloody sputum; assay: Inhalation in chronic obstructive pulmonary disease: chest pain VAS and blood in sputum (Example 2.13); type: in vivo, human; details: for Pain sensation intensity on a visual analog scale: chronic obstructive pulmonary disease, inhalation by nebulizer
# [4] = tested on: bleeding and pain after medical interventions; assay: Bleeding and pain in ENT, upper respiratory and digestive systems interventions (Example 2.17); type: in vivo, human
# Procedure: Evaluation of the claimed substance efficiency for reduction of bleeding and pain in ENT, upper respiratory and digestive systems pathologies, in the course of instrumentation studies of these systems. Patients with various medical interventions after treatment with haemostatic purpose and pain reduction were treated with the claimed preparation. An iron subsulfate solution was used as a reference. For efficiency evaluation the change in the pain sensation intensity on the visual analog scale (VAS) from 0 to 10 points was used.
# [5] = tested on: corneal sensitivity of the rabbit's eye; assay: Topical (corneal) anesthetic activity in rabbit's eye (Example 2.1); type: in vivo, rabbits; details: 0.5% aqueous solution into the conjunctival sac of the rabbit's eye
# Procedure: A study to determine anesthetic activity was carried out in unanesthetized rabbits, which were placed in a special box with a hole to restrain the animal's head. The study was conducted to determine the threshold of sensitivity of the rabbit's eye to a tactile impact. For this purpose, a thin metal wire was used without injuring the cornea. The examined compound and the reference drug (oxybuprocaine) were administered into the conjunctival sac of the rabbit's eye in the form of a 0.5% aqueous solution with the total volume of up to 0.4 ml. Determination of topical anaesthesia was performed starting from the 1st minute of the study. The absence of the blinking reflex for 1 min (100 touches) was considered as an indicator of full anesthesia. Based on the collected data reflecting the changes in corneal sensitivity under the influence of the drugs, the beginning, the duration of complete (100%) anesthesia and the total duration of anesthesia were determined.
# The relative activity of the tested compounds was calculated according to the Valet equation. The Rainier index is 852.4 for the claimed preparation and 63.5 for the reference preparation. The duration of anesthesia was 234 minutes for the claimed preparation and 24 min for oxibuprocaine.
# postoperative pain = assay: Postoperative pain syndrome after laparoscopic cholecystectomy, VAS (Example 2.8); type: in vivo, human
# Procedure: Evaluation of efficiency of the claimed substance for pain reduction was studied in patients suffering the postoperative pain syndrome. After laparoscopic cholecystectomy the claimed substance was applied onto the affected areas of the patients in the form of a solution/spray in a concentration of 0.01% to 10%. As a comparison preparation for surface anesthesia oxybuprocaine was used. To evaluate efficiency the change in the pain sensation intensity on the visual analog scale (VAS) in 1 minute after application/administration of the preparation and after 2 days in case of everyday application was used.
# eyeball pain = assay: Eyeball pain in posttraumatic processes, VAS (Example 2.16); type: in vivo, human; details: eyeball lesions, instilled into the conjunctival sac
# From the text: Evaluation of efficiency of the claimed substance for eyeball pain reduction in posttraumatic processes. The claimed substance solution was instilled into the conjunctival sac of patients with various lesions of the eyeball, including after surgery. As a reference, diclofenac eye drops were used. For efficiency evaluation the change in the pain sensation intensity on the visual analog scale (VAS) from 0 to 10 points was used.
# [6] = Nanostructure by dynamic light scattering; type: physicochemical; details: preparation concentration 0.05 mg/ml
# Procedure: (§2) The nanostructure is determined by the methods of dynamic light scattering using a Malvern Instruments Nanosizer Nano-ZS particle size analyzer and a FEI Tecnai G212Cryo12 transmission electron microscope enabling tp cool the samples at the boiling point of liquid nitrogen.
# [7] = Nanostructure by electron-microscopic examination; type: physicochemical
# Procedure: as §2
# [8] = tested on: bleeding from liver wounds; assay: Hemostatic activity together with aluminum sulfate gel or silver nitrate solution (Example 1.6); type: in vivo, rabbits
# Procedure: as §1, with “razor. […] An animal model was used in the experiment, as described in Example No. 4. Hemostatic activity was evaluated by the change of the bleeding intensity.” for “razor.”
# [9] = 1 minute after application of the preparation
molecule,measurement,setting,value
Ferric Subsulfate [iron subsulphate],Relative intensity of bleeding from liver wounds,[1]; 180 seconds after application,652.6 ± 108.2 mg/min
same,Relative intensity of bleeding from liver wounds,[1]; before application,1326.4 ± 128.5 mg/min
same,Pain sensation intensity on a visual analog scale,pain with soft corn; before treatment,4.2 +/− 0.2 points
same,Pain sensation intensity on a visual analog scale,pain with soft corn; in 1 minute,4.5 +/− 0.4 points
same,Pain sensation intensity on a visual analog scale,"pain with soft corn; in 2 days, everyday use",3.9 +/− 0.3 points
same,Itch intensity on the Itch Severity Score (ISS) scale,[2]; [9],4 points
same,Itch intensity on the Itch Severity Score (ISS) scale,[2]; in 5 days (for daily administration),5 points
same,Pain sensation intensity on a visual analog scale,[3]; before treatment,4.2 +/− 0.7
same,Pain sensation intensity on a visual analog scale,[3]; in 1 minute,4.4 +/− 0.7
same,Pain sensation intensity on a visual analog scale,[3]; in 5 days,4.2 +/− 0.7
same,Presence of bloody sputum,[3]; in 1 minute,+++
same,Pain sensation intensity on a visual analog scale,[4]; before treatment,4.7 +/− 0.5 points
same,Pain sensation intensity on a visual analog scale,[4]; in 1 minute,4.5 +/− 0.4 points
same,Pain sensation intensity on a visual analog scale,[4]; in 10 minute,4.6 +/− 0.5 points
"CCCCOc1cc(C(=O)OCCN(CC)CC)ccc1N [Oxybuprocaine, oxybuprocaine]","Rainier index (relative activity, Valet equation)",[5],63.5
same,duration of anesthesia,[5],24 min
same,Pain sensation intensity on a visual analog scale,postoperative pain; [9],2.2 +/− 0.4
same,Pain sensation intensity on a visual analog scale,postoperative pain; before treatment,7.6 +/− 0.8
same,Pain sensation intensity on a visual analog scale,postoperative pain; in 2 days (daily administration),0.5 +/− 0.1
"O=C(O)Cc1ccccc1Nc1c(Cl)cccc1Cl [Diclofenac solution, Diclofenac]",Pain sensation intensity on a visual analog scale,eyeball pain; before treatment,6.9 +/− 0.8 points
same,Pain sensation intensity on a visual analog scale,eyeball pain; in 1 minute,7.1 +/− 0.5 points
same,Pain sensation intensity on a visual analog scale,eyeball pain; in 10 minute,7.2 +/− 0.6 points
polyammonia methanediamine chloride [the claimed preparation],"Rainier index (relative activity, Valet equation)",[5],852.4
same,duration of anesthesia,[5],234 min
same,size of globules in solution,[6],10-15 nm
same,size of globules,[7],10-15 nm
"O=[N+]([O-])[O-].[Ag+] [Silver nitrate solution (1:200), Silver nitrate]",Relative intensity of bleeding,[8]; 120 seconds after application,1035.7 ± 119.0 mg/min
same,Relative intensity of bleeding,[8]; before application,1437.5 ± 141.6 mg/min
